In patent publication EP0406122A1, “Process for obtaining a native, wild-type human oestrogen receptor and its applications” (ASSOCIATION POUR LE DEVELOPPEMENT DE LA RECHERCHE EN …, priority 1989, dated 1991):

Target: T1, hER Gly-400 (HEGO) (Homo sapiens, UniProt P03372)
T1 construct: expressed in transfected cells; host or cells: HeLa
T1 sequence (P03372 1-595): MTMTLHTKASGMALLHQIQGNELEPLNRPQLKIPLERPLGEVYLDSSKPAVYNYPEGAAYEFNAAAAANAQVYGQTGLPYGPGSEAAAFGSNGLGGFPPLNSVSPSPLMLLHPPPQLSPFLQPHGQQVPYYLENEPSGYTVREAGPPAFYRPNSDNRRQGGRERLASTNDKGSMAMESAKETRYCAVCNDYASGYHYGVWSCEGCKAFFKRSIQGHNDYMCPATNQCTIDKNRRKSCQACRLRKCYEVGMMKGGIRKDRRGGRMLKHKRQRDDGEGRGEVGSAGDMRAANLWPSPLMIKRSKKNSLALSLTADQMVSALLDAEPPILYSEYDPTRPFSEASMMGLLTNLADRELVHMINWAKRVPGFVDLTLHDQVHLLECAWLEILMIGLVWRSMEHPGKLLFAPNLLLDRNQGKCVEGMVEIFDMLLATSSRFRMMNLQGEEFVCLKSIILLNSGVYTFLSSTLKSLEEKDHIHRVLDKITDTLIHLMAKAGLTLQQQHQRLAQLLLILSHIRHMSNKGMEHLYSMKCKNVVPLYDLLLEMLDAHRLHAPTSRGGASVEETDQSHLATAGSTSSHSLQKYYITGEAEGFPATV
Assay: transcription activation, vit-tk-CAT reporter in HeLa cells transfected with HEGO
Assay type: cell-based, humain
Settings: 10⁻⁷ M ICI 164,384 in the presence of 10⁻⁸ M oestradiol, CAT activity
Method: On a transfecté des cellules Hela avec 50 ng de vecteurs d'expression de Er humain ou de Er de poulet comme indiqué, conjointement avec 1 µg de plasmide "reporter" vit-tk-cat, et le plasmide pCH 110 de contrôle interne de l'expression de la béta-galactosidase (3µg) et de l'ADN transporteur (Bluescribe M13+) pour un total de 20 µg d'ADN.
• A) Des cellules HeLa ont été transfectées avec 10 ng des vecteurs d'expression de l'hER correspondant, HEO (colonnes 1-5), ou HEGO (colonnes 6-10), conjointement avec 1 µG de plasmide "reporter" vit-tk-CAT, 3 µG du plasmide de contrôle de la béta-galactosidase pCH110 et avec de l'ADN Bluescribe M13+ pour un total d'ADN de 20 µg. […] 2 heures plus tard on a récolté les cellules […] et un dosage de la béta-galactosidase a été effectué.

## CCCCN(C)C(=O)CCCCCCCCCC[C@@H]1Cc2cc(O)ccc2[C@H]2CC[C@]3(C)[C@@H](O)CC[C@H]3[C@H]12 [ICI 164,384]
  effet sur l'induction à l'oestradiol: très peu d'effet
